Where a name gives a salt, the structure may show the parent alone.
How the values were obtained:
[1] = molecular target: T1, mu opiate receptor (Rattus norvegicus, UniProt P33535); assay: Mu opiate receptor binding (3H-Dihydromorphine); conditions: Table 2; 3H-Dihydromorphine 0.2 nM, rat brain
T1 construct: The receptor membrane homogenate was prepared using rat brain; from tissue; host or cells: rat brain membrane homogenate
Experimental: (§1) Several subtypes of opiate receptors have been identified. These multiple receptors are thought to mediate the different effects of opiates, e.g., mu receptors are believed to mediate the analgesic activity of opiates. Therefore, the relative affinities of the test compounds for the mu and the delta opiate receptors was determined. The receptor membrane homogenate was prepared using rat brain as previously described in this document. The binding assays for the mu and delta receptors were performed using a modification of the method described by Chang and Cuatrecasas. K.-J. Chang and P. Cuatrecasas. Multiple Opiate receptors: enkephalins and morphine bind to receptors of different specificity, J. Biol. Chem. 254, 2610-2618 (1979). The incubation mixtures contained 0.75 ml of homogenate (1 mg protein/ml) and 0.05 ml of ^3 H-Dihydromorphine (final concentration of 0.2 nM) or 0.05 ml ^3 H-(D)-Ala^2 -(D)-Leu^5 enkephalin (final concentration of 0.2 nM). Both the displacer, naloxone, and the test compounds were added in 0.1 ml volumes. Finally, […] tris-HCl buffer (pH 7.4 at 25° C.) was added to bring the total volume up to 1 ml. The mixture were then incubated 60 minutes at 25° C. before filtering.
(§2) The IC50 values, i.e., the concentration of the test compound that inhibited ligand specific binding to its receptor by 50%, were calculated using log-probit analysis, D. J. Finney. […]

[2] = molecular target: T2, delta opiate receptor (Rattus norvegicus, UniProt P33533); assay: Delta opiate receptor binding (3H-(D)-Ala2-(D)-Leu5 enkephalin); conditions: Table 2; 3H-(D)-Ala2-(D)-Leu5 enkephalin 0.2 nM, rat brain
T2 construct: The receptor membrane homogenate was prepared using rat brain; from tissue; host or cells: rat brain membrane homogenate
Experimental: as §1, §2

[3] = test system: spontaneous hypertensive rats (SHR); assay: Hypertensive test in spontaneous hypertensive rats (SHR); assay type: in vivo, rat; set-up: key to Antihypertensive Properties, Result: Active: Any compound that resulted in a decrease in arterial blood pressure of 20 mm Hg or greater was considered active; conditions: for Antihypertensive Properties, Result: Table 3, 10 mg/kg intravenously, one unanesthetized male SHR
Experimental: A compound's ability to act as an antihypertensive agent was determined using spontaneous hypertensive rats (SHR). Male SHR were maintained in-house for 1 or more weeks before use and were between 11 and 16 weeks old. The test compound was administered intravenously and the initial mean arterial blood pressure was measured directly via an arterial catheter implanted immediately before administration of the compound. Blood pressure readings were made 5, 10 and 15 minutes after administration of the compound. […] Statistical comparisons were made using the unpaired student's test.
The following compounds of the invention were evaluated for their antihypertensive properties using the spontaneous hypertensive rat (SHR). […] The SHR test was essentially that described earlier. Each compound listed in Table 3, was administered intravenously to one unanesthetized, male, spontaneously hypertensive rat; the dosage was 10 mg/kg.

T1 sequence (P33535 whole entry): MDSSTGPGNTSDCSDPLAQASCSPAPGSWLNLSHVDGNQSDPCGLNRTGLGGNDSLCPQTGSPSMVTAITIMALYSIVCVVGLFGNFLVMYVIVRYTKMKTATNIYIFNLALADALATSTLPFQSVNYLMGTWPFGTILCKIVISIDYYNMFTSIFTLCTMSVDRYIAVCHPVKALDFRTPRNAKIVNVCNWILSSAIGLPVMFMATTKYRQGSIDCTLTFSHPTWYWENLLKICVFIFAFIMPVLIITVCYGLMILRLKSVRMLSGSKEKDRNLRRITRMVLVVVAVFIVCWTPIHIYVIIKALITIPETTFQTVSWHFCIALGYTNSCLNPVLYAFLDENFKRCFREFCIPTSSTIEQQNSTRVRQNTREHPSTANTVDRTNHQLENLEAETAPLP
T2 sequence (P33533 whole entry): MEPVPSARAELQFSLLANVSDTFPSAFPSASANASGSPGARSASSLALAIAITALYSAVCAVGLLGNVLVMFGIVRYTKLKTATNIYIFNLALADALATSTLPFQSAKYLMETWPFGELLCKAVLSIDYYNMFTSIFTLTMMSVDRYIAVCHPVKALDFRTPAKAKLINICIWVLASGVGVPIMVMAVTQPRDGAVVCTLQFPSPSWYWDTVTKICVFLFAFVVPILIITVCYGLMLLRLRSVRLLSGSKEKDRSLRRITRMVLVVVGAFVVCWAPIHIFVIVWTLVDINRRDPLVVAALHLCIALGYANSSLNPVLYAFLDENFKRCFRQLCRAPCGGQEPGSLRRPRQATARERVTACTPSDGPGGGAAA

## Cc1cc(O)cc(C)c1C[C@H](N)C(=O)N[C@H](C)C(=O)NCCCc1ccccc1 [Example 5, 2,6-dimethyltyrosyl-N-(3-phenylpropyl)-D-alaninamide, hydrochloride]
[1]
  IC50: 0.1 nM
[2]
  IC50: 1.2 nM
[3]; Table 2, i.v.
  SHR Blood Pressure, dose printed (active at): 1 mg/kg
[3]
  Antihypertensive Properties, Result: Active

## tyrosine-D-alanine-phenylpropylamide [Prior Art, reference compound]
[1]
  IC50: 8.8 nM
[2]
  IC50: 62 nM
[3]; Table 2, 10 mg/kg i.v.
  SHR Blood Pressure, activity at stated dose: Active
[3]
  Antihypertensive Properties, Result: Active
